Assay in all cases: biochemical
Assay type in all cases: binding

For assay [1], the target named is DRB4*0101 (Homo sapiens, UniProt P01903+P13762, G164S).
The target in assay [2] is DRB5*0101 (Homo sapiens, UniProt P01903+Q30154).
For assay [3], the target named is DRB3*0101 (Homo sapiens, UniProt P01903+P79483).

pIC50: −log10 of the molar value. Where no end group is shown, it is not given here.

As for `C[C@H](NC(=O)[C@H](Cc1c[nH]c2ccccc12)NC(=O)[C@@H](NC(=O)[C@H](CCCCN)NC(=O)[C@H](Cc1ccc(O)cc1)NC(=O)[C@@H]1CCCN1C(=O)[C@H](CC(N)=O)NC(=O)[C@H](CCC(=O)O)NC(=O)[C@H](CC(=O)O)NC(=O)[C@H](CC(=O)O)NC(=O)[C@H](Cc1ccc(O)cc1)NC(=O)[C@H](Cc1c[nH]cn1)NC(=O)[C@H](Cc1c[nH]c2ccccc12)NC(=O)[C@@H](N)[C@@H](C)O)[C@@H](C)O)C(=O)N[C@@H](Cc1ccc(O)cc1)C(=O)N[C@@H](Cc1c[nH]cn1)C(=O)NCC(=O)O` [NS5 290-306], in assay [1], the pIC50 is 4.81.
In the case of `CC[C@H](C)[C@H](NC(=O)[C@H](CCC(=O)O)NC(=O)[C@H](C)NC(=O)[C@@H](NC(=O)[C@@H](NC(=O)CNC(=O)[C@@H](N)CCC(N)=O)C(C)C)[C@@H](C)O)C(=O)N[C@H](C(=O)N1CCC[C@H]1C(=O)N[C@@H](CCC(N)=O)C(=O)N[C@@H](C)C(=O)N[C@@H](CO)C(=O)N[C@H](C(=O)N[C@H](C(=O)N[C@@H](CCC(=O)O)C(=O)O)[C@@H](C)O)[C@@H](C)O)[C@@H](C)O` [Envelope 156-170], the negative-log IC50 (pIC50) in assay [1] was 6.15.
Consider `CSCC[C@H](NC(=O)[C@@H](NC(=O)[C@H](CCC(N)=O)NC(=O)[C@H](Cc1ccccc1)NC(=O)[C@H](CC(N)=O)NC(=O)[C@H](CCCCN)NC(=O)[C@@H]1CCCN1C(=O)[C@H](CC(N)=O)NC(=O)[C@H](CCCCN)NC(=O)CNC(=O)[C@@H]1CCCN1C(=O)[C@@H](N)CCC(=O)O)[C@@H](C)O)C(=O)N1CCC[C@H]1C(=O)NCC(=O)N[C@H](C(=O)O)[C@@H](C)O` [NS3 101-115], for which the negative-log IC50 (pIC50) was 5.97 in assay [2] and 5.39 in assay [3].
Take `CC(C)[C@H](NC(=O)[C@H](CCC(=O)O)NC(=O)[C@H](Cc1ccc(O)cc1)NC(=O)[C@H](CO)NC(=O)CNC(=O)[C@H](Cc1c[nH]cn1)NC(=O)[C@H](Cc1ccc(O)cc1)NC(=O)[C@H](C)NC(=O)[C@H](Cc1c[nH]c2ccccc12)NC(=O)[C@@H](NC(=O)[C@H](CCCCN)NC(=O)[C@H](Cc1ccc(O)cc1)NC(=O)[C@@H]1CCCN1C(=O)[C@H](CC(N)=O)NC(=O)[C@H](CCC(=O)O)NC(=O)[C@@H](N)CC(=O)O)[C@@H](C)O)C(=O)N[C@@H](CCCCN)C(=O)O` [NS5 295-311]: the values for the pIC50 in assay [2] and in assay [3] were 5.28 and 6.01, respectively.
`CC(C)C[C@H](NC(=O)[C@H](CCCCN)NC(=O)[C@@H](NC(=O)[C@H](CCCCN)NC(=O)[C@H](CCC(N)=O)NC(=O)[C@H](Cc1ccc(O)cc1)NC(=O)[C@H](CCC(=O)O)NC(=O)[C@@H](N)[C@@H](C)O)[C@@H](C)O)C(=O)N[C@@H](CC(N)=O)C(=O)N[C@@H](CC(=O)O)C(=O)N[C@@H](Cc1c[nH]c2ccccc12)C(=O)N[C@@H](CC(=O)O)C(=O)N[C@@H](Cc1ccccc1)C(=O)N[C@H](C(=O)N[C@H](C(=O)O)C(C)C)C(C)C` [NS3 393-407]: the negative logarithm of the IC50 (pIC50) in assay [2] was 4.80; in assay [3] it was 5.43.
For the compound `CC[C@H](C)[C@H](NC(=O)[C@H](CC(C)C)NC(=O)[C@H](CCC(=O)O)NC(=O)[C@H](Cc1c[nH]cn1)NC(=O)[C@H](Cc1ccccc1)NC(=O)[C@H](Cc1c[nH]cn1)NC(=O)[C@H](Cc1c[nH]cn1)NC(=O)[C@H](CO)NC(=O)[C@H](CS)NC(=O)[C@H](Cc1ccccc1)NC(=O)[C@@H]1CCCN1C(=O)[C@@H](NC(=O)[C@H](CCC(N)=O)NC(=O)[C@H](CCC(N)=O)NC(=O)[C@H](Cc1c[nH]c2ccccc12)NC(=O)[C@@H](N)CC(=O)O)C(C)C)C(=O)N[C@@H](CCSC)C(=O)O` [NS5 702-718], the pIC50 in assay [2] was 5.49; in assay [3] it was 5.32.
Taken in the same sequence, the figures for `CC[C@H](C)[C@H](NC(=O)[C@@H]1CCCN1C(=O)CNC(=O)[C@H](C)NC(=O)[C@H](CC(C)C)NC(=O)[C@H](CO)NC(=O)[C@H](CCCCN)NC(=O)[C@@H]1CCCN1C(=O)[C@@H](NC(=O)[C@@H](NC(=O)[C@H](CCSC)NC(=O)[C@H](CC(=O)O)NC(=O)[C@H](CO)NC(=O)[C@H](CCC(=O)O)NC(=O)[C@@H](N)CC(C)C)[C@@H](C)CC)[C@@H](C)CC)C(=O)O` [NS1 237-251] were 4.83 and 5.57.
Take `CC[C@H](C)[C@H](NC(=O)[C@@H](NC(=O)[C@H](CCCNC(=N)N)NC(=O)[C@H](CC(=O)O)NC(=O)[C@H](C)NC(=O)[C@H](CCCCN)NC(=O)[C@H](Cc1ccccc1)NC(=O)[C@H](CC(N)=O)NC(=O)[C@H](C)NC(=O)CNC(=O)[C@H](CCSC)NC(=O)[C@@H](N)CCC(=O)O)C(C)C)C(=O)N[C@@H](CC(=O)O)C(=O)N1CCC[C@H]1C(=O)N[C@@H](CCCNC(=N)N)C(=O)O` [NS3 413-427]: the pIC50 was 5.92 in assay [2] and 7.02 in assay [3].
Turning to `CC[C@H](C)[C@H](NC(=O)[C@H](CO)NC(=O)[C@@H]1CCCN1C(=O)[C@@H](NC(=O)[C@H](Cc1ccccc1)NC(=O)[C@H](Cc1c[nH]c2ccccc12)NC(=O)[C@@H](NC(=O)[C@@H](NC(=O)[C@H](CCCCN)NC(=O)CNC(=O)[C@H](C)NC(=O)[C@H](Cc1ccccc1)NC(=O)[C@H](CC(=O)O)NC(=O)[C@@H](N)[C@@H](C)O)[C@@H](C)O)C(C)C)C(C)C)C(=O)N[C@@H](CCCCN)C(=O)O` [NS3 353-367], the pIC50 in assay [2] is 5.92; in assay [3], 4.80.
In the case of `CC[C@H](C)[C@H](NC(=O)[C@H](CCCCN)NC(=O)[C@H](CCCCN)NC(=O)[C@H](CCC(=O)O)NC(=O)[C@H](CC(C)C)NC(=O)[C@@H]1CCCN1C(=O)[C@H](Cc1c[nH]cn1)NC(=O)[C@@H]1CCCN1)C(=O)N[C@H](C(=O)N[C@@H](CCC(N)=O)C(=O)N[C@@H](Cc1c[nH]c2ccccc12)C(=O)N[C@@H](CC(C)C)C(=O)N[C@@H](CCC(=O)O)C(=O)N[C@H](C(=O)N[C@@H](CCCCN)C(=O)NCC(=O)N[C@H](C(=O)O)C(C)C)[C@@H](C)O)[C@@H](C)O` [NS5 636-652], the pIC50 in assay [1] was 5.42.
On the same count and under the same terms, then `CSCC[C@H](NC(=O)[C@@H](NC(=O)[C@@H](NC(=O)[C@@H](NC(=O)[C@H](CS)NC(=O)CNC(=O)CNC(=O)[C@H](Cc1c[nH]cn1)NC(=O)[C@H](CCC(=O)O)NC(=O)[C@H](CC(C)C)NC(=O)[C@@H](NC(=O)[C@@H](NC(=O)[C@H](CC(=O)O)NC(=O)[C@@H](N)C(C)C)C(C)C)C(C)C)C(C)C)[C@@H](C)O)[C@@H](C)O)C(=O)N[C@@H](C)C(=O)O` [Envelope 21-35], with 5.35.
In assay [1], `CC[C@H](C)[C@H](NC(=O)[C@H](C)NC(=O)[C@H](CCSC)NC(=O)[C@H](CCCNC(=N)N)NC(=O)[C@H](CCCCN)NC(=O)[C@H](CC(C)C)NC(=O)[C@H](CCCNC(=N)N)NC(=O)[C@H](CCC(=O)O)NC(=O)[C@@H](N)C(C)C)C(=O)N[C@@H](CO)C(=O)NCC(=O)N[C@@H](CC(=O)O)C(=O)N[C@@H](CC(=O)O)C(=O)N[C@@H](CS)C(=O)N[C@H](C(=O)N[C@H](C(=O)N[C@@H](CCCCN)C(=O)O)C(C)C)C(C)C` [NS5 652-668] gave a pIC50 of 6.21.
In the case of `CSCC[C@H](NC(=O)CNC(=O)CNC(=O)[C@H](Cc1c[nH]cn1)NC(=O)[C@H](CCCCN)NC(=O)[C@H](CCCNC(=N)N)NC(=O)[C@H](CCC(N)=O)NC(=O)[C@H](CC(C)C)NC(=O)[C@H](CCCNC(=N)N)NC(=O)[C@H](CCC(=O)O)NC(=O)[C@@H](N)CC(C)C)C(=O)N[C@@H](CC(C)C)C(=O)N[C@H](C(=O)N[C@@H](CCCNC(=N)N)C(=O)N[C@@H](CC(N)=O)C(=O)N1CCC[C@H]1C(=O)N[C@@H](CC(C)C)C(=O)O)C(C)C` [NS5 193-209], the results for the negative logarithm of the IC50 (pIC50) in assay [2] and in assay [3] were 5.92 and 4.92, respectively.
The matching figures for `CC[C@H](C)[C@H](NC(=O)[C@@H](NC(=O)[C@H](CCCCN)NC(=O)[C@@H](N)CCCCN)C(C)C)C(=O)N[C@@H](CCC(N)=O)C(=O)N[C@@H](CC(C)C)C(=O)N[C@@H](CO)C(=O)N[C@@H](CCCNC(=N)N)C(=O)N[C@@H](CCCCN)C(=O)N[C@H](C(=O)N[C@@H](Cc1ccccc1)C(=O)N[C@@H](CC(=O)O)C(=O)N[C@H](C(=O)N[C@@H](CCC(=O)O)C(=O)N[C@@H](Cc1ccc(O)cc1)C(=O)O)[C@@H](C)O)[C@@H](C)O` [NS3 381-395]: 5.24 and 6.40.
In assay [1], LPWTSGATTETPTWN [Envelope 216-230] had a pIC50 of 4.94.
Regarding `CC(C)C[C@H](NC(=O)[C@H](CCCNC(=N)N)NC(=O)[C@H](CCCCN)NC(=O)CNC(=O)[C@H](CC(N)=O)NC(=O)[C@H](Cc1ccc(O)cc1)NC(=O)[C@@H](NC(=O)[C@H](CC(C)C)NC(=O)[C@@H](N)C(C)C)[C@@H](C)O)C(=O)N[C@@H](CCC(=O)O)C(=O)N1CCC[C@H]1C(=O)N[C@@H](CC(N)=O)C(=O)N[C@@H](Cc1c[nH]c2ccccc12)C(=O)N[C@@H](C)C(=O)N[C@@H](CO)C(=O)O` [NS3 57-71], the pIC50 in assay [2] is 5.42; in assay [3], 5.27.
Taken in the same sequence, the figures for `CC[C@H](C)[C@H](NC(=O)[C@H](CC(=O)O)NC(=O)[C@@H](N)[C@@H](C)O)C(=O)N[C@@H](CO)C(=O)N[C@@H](CCC(=O)O)C(=O)N[C@@H](CCSC)C(=O)NCC(=O)N[C@@H](C)C(=O)N[C@@H](CC(N)=O)C(=O)N[C@@H](Cc1ccccc1)C(=O)N[C@@H](CCCCN)C(=O)N[C@@H](C)C(=O)N[C@@H](CC(=O)O)C(=O)N[C@@H](CCCNC(=N)N)C(=O)N[C@H](C(=O)O)C(C)C` [NS3 409-423] were 7.30 and 6.77.
Taken in the same sequence, the figures for `CC[C@H](C)[C@H](N)C(=O)N[C@@H](CCCNC(=N)N)C(=O)N[C@@H](Cc1ccc(O)cc1)C(=O)N[C@@H](CCC(N)=O)C(=O)N[C@H](C(=O)N[C@H](C(=O)N[C@@H](C)C(=O)N[C@H](C(=O)N[C@@H](CCCCN)C(=O)N[C@@H](CO)C(=O)N[C@@H](CCC(=O)O)C(=O)N[C@@H](Cc1c[nH]cn1)C(=O)N[C@H](C(=O)NCC(=O)N[C@@H](CCCNC(=N)N)C(=O)O)[C@@H](C)O)[C@@H](C)O)[C@@H](C)O)[C@@H](C)O` [NS3 241-255] were 7.77 and 4.89.
Turning to `CC[C@H](C)[C@H](NC(=O)[C@@H](NC(=O)[C@H](Cc1ccccc1)NC(=O)[C@H](CO)NC(=O)[C@H](CO)NC(=O)[C@H](CC(N)=O)NC(=O)[C@H](CCC(N)=O)NC(=O)[C@@H](NC(=O)[C@H](CCC(=O)O)NC(=O)[C@H](C)NC(=O)[C@@H](NC(=O)[C@@H](NC(=O)[C@@H](NC(=O)[C@H](CCCCN)NC(=O)[C@H](C)N)[C@@H](C)CC)C(C)C)[C@@H](C)O)[C@@H](C)O)[C@@H](C)CC)C(=O)O` [NS1 121-135], the values for the negative-log IC50 (pIC50) in assay [2] and in assay [3] were 5.02 and 5.91, respectively.

The record behind these values is PMC3794980, “Identification of Conserved and HLA Promiscuous DENV3 T-Cell Epitopes” (PLoS Neglected Tropical Diseases, 2013).
